Measurements: patent US20020142362A1, “Colorimetric assay system using thiopeptolide substrate for detection of membrane-type matrix metalloproteinase” (priority 2000, published 2002)
Numbered stars: 1 amine (or outer) side, 2 acyl side, 3 side chain; on linkers, the order of the positions; unused ones are H or OH. Bridge positions count the residues as written; N and C are the ends. Square brackets hold non-standard residues; d marks the D form. Peptide text beside a SMILES is read from it. I, II: the chains in the order shown. Actinocin(9to1) = Cc1c2oc3c(C)ccc(C(=O)[*:1])c3nc-2c(C(=O)[*:2])c(N)c1=O; NMeV = CN[C@H](C(=O)O)C(C)C; Sar = CNCC(=O)O

Tests used:
MT-MMP [1] = assay: Thiopeptolide assay on cultured trabecular meshwork cells (digitonin-permeabilized); format: cell-based, Rhesus monkey; conditions: for thiopeptolide assay result versus control CACM: control cells (no Con A), 1 hour preincubation + 24 hours
Experimental: (§1) The assay of the present invention may be made by first preparing the selected biological sample and assay buffer. To prepare the biological sample, the biological sample such as but not limited to cultured cells were placed in microtiter plates and incubated at approximately 37° C. for up to approximately 96 hours with serum-free, defined medium. A portion of the serum-free, defined medium contained test compounds, while another portion was maintained free of test compounds to serve as controls. In some cases, the biological sample was then processed as a permeabilized “ghost” as described in Example 1 below. The biological sample was then rinsed several times with cold isotonic balanced saline or Tris(hydroxymethyl)aminomethane (TRIS) buffer at pH 7.2 - 7.5. The saline or buffer was then replaced by filter-sterilized, isotonic assay buffer (295 mOsm) consisting of approximately 50 mmol/L N-[2-hydroxyethyl]piperazine-N′-[2-ethane sulfonic acid] (HEPES), approximately 106 mmol/L sodium chloride, approximately 3.5 mmol/L potassium chloride, approximately 5 mmol/L calcium chloride, and approximately 0.02% (v/v) polyoxyethylene 23 lauryl ether (Brij 35) or a similar detergent, final pH approximately 7.5, at approximately room temperature. The Brij 35 was added fresh, and the final mixture was protected from excessive light exposure. The volume of assay buffer for each biological sample was approximately one-half the final assay mixture volume, the other half being made up of the thiopeptolide substrate/thiol reagent solution. For example, when 96-well microtiter plates were employed, the assay mixture volume was approximately 200 microliters.
Next the thiopeptolide substrate/thiol reagent solution was prepared. Preferably, the synthetic thiopeptolide substrate acetyl-prolyl-leucyl-glycyl-[2-mercapto-4-methyl-pentanoyl]-leucyl-glycyl-ethyl ester (Bachem Bioscience, Inc., King of Prussia, Pa.) is used in the solution due to its ready availability. The synthetic thiopeptolide was stored as a 40X, 20 mmol/L stock in DMSO, sealed from light and air, and stored with desiccant at approximately −70° C.. The thiol reagent, 4,4-dithiodipyridine,5,5′-dithio bis(2-nitro-benzoic acid) (DTNB) or the like, but preferably DTNB, was prepared as a 100X, 50 mmol/L stock in DMSO, and stored protected from light with desiccant at approximately room temperature. The combined thiopeptolide and DTNB were both diluted to appropriately 1 mmol/L in assay buffer without Brij 35 to yield a solution that was 2X for both chemicals after thorough mixing. The assay reaction was started when this 2X solution was added in a 1:1 ratio, with thorough mixing, to the assay buffer in which the cells had been equilibrated. The final concentration of both thiopeptolide and DTNB were 0.5 mmol/L.
The assay reaction was then allowed to progress to a suitable endpoint beyond which no further color reaction proceeded, possibly due to product inhibition. This endpoint is usually reached after approximately two hours. During the two hours the samples were gently agitated in an approximately 37° C. humidified incubator. Once the endpoint was reached the microtiter plates were placed into a plate reader and optical density (OD) was measured at 410 nm. Blank values, the OD readings for samples without cells, used to assess non-enzymatic, non-specific hydrolysis of substrate, were then subtracted from all sample OD measurements. The OD measurements taken at 410 nm may be used as a measure of the amount of MT-MMP present on the samples. The effects of experimental conditions on the expression of MT-MMP may then be compared with that of the control samples.
Details of the signal transduction process initiated by Con A culminating in proGelatinase A activation by MT-MMP remained to be elucidated. […]

proGelatinase A [2] = conditions: cited from earlier work; for activation of Gelatinase A from the proenzyme form (zymography): HT-1080, in vitro incubation
MT1-MMP [3] = assay: Thiopeptolide assay on HT-1080 cells; format: cell-based, Human
Excerpt: The activation of proGelatinase A was shown in the noted Lohi and Stanton work to be inhibitable by tissue inhibitor of [matrix] metalloproteinases-2 (TIMP-2), and by a synthetic hydroxamate inhibitor of MMP's, but not by metalloproteinases-1 (TIMP-1). As additional evidence that the subject assay detects MT1-MMP in human and non-human primate TM cells, the zymographic results of the Lohi and Stanton work were reproduced using the subject assay, using the same methodology as described herein for TM cells, with […] and […].

MT1-MMP [4] = conditions: HT-1080, in vitro incubation; cited from earlier work
MT-MMP [5] = assay: Thiopeptolide assay on excised trabecular meshwork from human anterior segment organ culture; format: cell-based
Experimental: as §1
Next the thiopeptolide substrate/thiol reagent solution was prepared. Preferably, the synthetic thiopeptolide substrate acetyl-prolyl-leucyl-glycyl-[2-mercapto-4-methyl-pentanoyl]-leucyl-glycyl-ethyl ester (Bachem Bioscience, Inc., King of Prussia, Pa.) is used in the solution due to its ready availability. The synthetic thiopeptolide was stored as a 40X, 20 mmol/L stock in DMSO, sealed from light and air, and stored with desiccant at approximately −70° C.. […]
The assay reaction was then allowed to progress to a suitable endpoint beyond which no further color reaction proceeded, possibly due to product inhibition. […] Once the endpoint was reached the microtiter plates were placed into a plate reader and optical density (OD) was measured at 410 nm. Blank values, the OD readings for samples without cells, used to assess non-enzymatic, non-specific hydrolysis of substrate, were then subtracted from all sample OD measurements. […]

proGelatinase A [6] = assay: Zymography of conditioned medium from cultured TM cells; format: cell-based
MT-MMP [7] = assay: Thiopeptolide assay on cultured TM cells with protease inhibitors; format: cell-based
Excerpt: Evidence has been presented by Mazzieri, et al., EMBO Journal 16: 2319-2332 (1997) that the urokinase-plasmin system may be in part responsible for activation of proGelatinase A in some cell systems. It was found in studying the subject thiopeptolide assay that a lesser fraction of the subject thiopeptolide assay activity could be inhibited by serine protease inhibitors, which are ineffective with MMP's. However, when these latter inhibitors were employed with TM cells stimulated by Con A, the percentage increase in thiopeptolide assay activity, compared to control cultures, was in fact augmented due to the Con A treatment.

[8] = Con A-treated cells (10 ug/ml), inhibitor 1 hour preincubation, then Con A plus inhibitor 24 hours, Act D 500 ng/ml, CHX 20 ug/ml

Compound	MT-MMP activity in thiopeptolide assay versus control CACM (MT-MMP [1]; [8])	thiopeptolide assay result versus control CACM (MT-MMP [1]; Act D 500 ng/ml, CHX 20 ug/ml)	activation of Gelatinase A from the proenzyme form (zymography) (proGelatinase A [2])	activity in thiopeptolide assay following treatment (MT1-MMP [3])	expression of MT1-MMP (Western immunoblot) (MT1-MMP [4])	further results
Cc1c2oc3c(C)ccc(C(=O)N[C@@H]4C(=O)N[C@H](C(C)C)C(=O)N5CCC[C@H]5C(=O)N(C)CC(=O)N(C)[C@@H](C(C)C)C(=O)O[C@@H]4C)c3nc-2c(C(=O)N[C@@H]2C(=O)N[C@H](C(C)C)C(=O)N3CCC[C@H]3C(=O)N(C)CC(=O)N(C)[C@@H](C(C)C)C(=O)O[C@@H]2C)c(N)c1=O [Act D, actinomycin D] (I: T[dV]P[Sar][NMeV] / II: T[dV]P[Sar][NMeV]; ester I:1-I:C, II:1-II:C; linker I:N-II:N via Actinocin(9to1))	slightly, but discernibly, higher than control	not significantly different from control CACM alone				MT-MMP activity in thiopeptolide assay versus control CACM (MT-MMP [1]; Con A for 6 hrs, then Con A plus Act D for 18 hours): slightly, but discernibly, higher than control
C[C@@H]1C[C@@H]([C@H](O)CC2CC(=O)NC(=O)C2)C(=O)[C@@H](C)C1 [CHX, cycloheximide]	not significantly different from control CACM alone	not significantly different from control CACM alone				
CCCCCCCCCCCCCC(=O)O[C@@H]1[C@@H](C)[C@@]2(O)[C@@H](C=C(CO)C[C@]3(O)C(=O)C(C)=C[C@@H]23)[C@@H]2C(C)(C)[C@]12OC(C)=O [PMA, phorbol 12-myristate 13-acetate]			activate	Increased activity	increase expression	
Concanavalin A [Con A]			activate	Increased activity	increase expression	OD readings over control (MT-MMP [5]; 100 ug/ml Con A): 200%; OD readings over control (MT-MMP [5]; 30 - 80 ug/ml Con A): approximately 100%; thiopeptolide assay result versus control medium (MT-MMP [5]; Con A below 30 ug/ml): indistinguishable from simply incubating anterior segment quadrants in control medium; threshold Con A concentration for MT-MMP expression in intact TM (MT-MMP [5]; human anterior segment quadrants, 24 + 18 hour incubation): 30 µg/mL; MT-MMP expression over control levels (OD 410 nm, thiopeptolide assay) (MT-MMP [1]; Con A 10 ug/ml in CACM, 24 hours, vs control CACM): more than 200%; activation of proGelatinase A (zymography) (proGelatinase A [6]): robust activation
TIMP-1: metalloproteinases-1 (TIMP-1), tissue inhibitor of metalloproteinases						inhibition of activity increases in thiopeptolide assay (MT-MMP [7]): not; inhibition of activation of proGelatinase A (proGelatinase A [2]; HT-1080, Lohi and Stanton work): not
